Laboratory results reported in publication PMC11192081, “Evidence that the cold- and menthol-sensing functions of the human TRPM8 channel evolved separately” (Science Advances, 2024).

Legend:
AncVert TRPM8 = tested on: T1, AncVert TRPM8; assay: Fluoforte calcium flux assay, HEK-293T stable cells; assay type: cell-based; conditions: Homo sapiens
T1 construct: tetramer

AncMam TRPM8 = tested on: T2, AncMam TRPM8; assay: as above; assay type: cell-based; conditions: Homo sapiens
T2 construct: tetramer

CC(C)[C@@H]1CC[C@@H](C)C[C@H]1O [menthol]
EC50 (AncVert TRPM8): 140 ± 40 µM
EC50 (AncMam TRPM8): 10 ± 1 µM
